Data reported in patent publication US9821018B2, “Composition comprising Raphanus, Theobroma and Passiflora for treating opioid and alcohol abuse” (priority 2012, dated 2017).
Counter-ions that a name gives are not always drawn.

Legend:
brain serotonin = brain serotonin concentration by ELISA; assay type: in vivo, Male Wistar rats; details: i.p., 30 min after injection; fluoxetine 10 mg/kg, desipramine 50 mg/kg, Raphanus extract 2-256 mg/kg; vs saline
Procedure: (§1) Male Wistar rats (250-300 g, Amman-Jordan) were used throughout the study (8 rats for each experiment). Animals were housed in groups of 4/cage in a 12/12 h light-cycle (lights on at 07.00 a.m.), with ad-lib food and water available. The animals were randomly allocated to different groups of the experiment. All experiments were conducted in accordance with standard ethical guidelines and approved by the local ethical Committee University of Medical Committee on the Use and Care of Animals, 81/021, Jul. 10, 2011 (Petra University, Amman, Jordan)).
(§2) Fluoxetine hydrochloride [N-methyl-3-[(4-trifluoromethyl) phenoxy]-3-phenylpropylamine hydrochloride] and desipramine hydrochloride [10-11-dihydro-N-methyl-5H-dibenz (Z) [b, f] azepine-5-propanamine hydrochloride] (TOCRIS Bioscience, UK) were dissolved in sterile saline and administered intraperitoneally at a concentration of 1 ml/kg; the extract was prepared immediately before use. The control groups were administered saline.
(§3) The Raphanus sativus extract used was prepared in Jordan. To prepare the extract, 100 g of dried and milled […] was extracted with 1000 ml distilled water by maceration. […] The extract was dissolved in normal saline and immediately administered to the animals. […]

brain dopamine = brain dopamine concentration by ELISA; assay type: in vivo, Male Wistar rats; details: i.p., 30 min after injection; fluoxetine 10 mg/kg, desipramine 50 mg/kg, Raphanus extract up to 256 mg/kg (most potent)
Procedure: as §1, §2, §3

PTZ-induced convulsions = details: mice, i.p.; safranal 0.15 and 0.35 ml/kg body weight, crocin 22 mg/kg; cited from earlier work
[1] = system: morphine-induced place preference; details: i.p.; extract 10, 50 and 100 mg/kg, safranal 1, 5 and 10 mg/kg; cited from earlier work

## CNCCCN1c2ccccc2CCc2ccccc21 [desipramine, 10-11-dihydro-N-methyl-5H-dibenz (Z) [b, f] azepine-5-propanamine hydrochloride]
Brain serotonin
  brain serotonin levels: neither desipramine nor Raphanus extract can increase brain serotonin levels
Brain dopamine
  dopamine concentration in the brain: can increase dopamine concentration in the brain

## CC(/C=C/C=C(\C)C(=O)O[C@@H]1O[C@H](CO[C@@H]2O[C@H](CO)[C@@H](O)[C@H](O)[C@H]2O)[C@@H](O)[C@H](O)[C@H]1O)=C\C=C\C=C(C)\C=C\C=C(/C)C(=O)O[C@@H]1O[C@H](CO[C@@H]2O[C@H](CO)[C@@H](O)[C@H](O)[C@H]2O)[C@@H](O)[C@H](O)[C@H]1O [Crocin, crocin]
PTZ-induced convulsions
  anticonvulsant activity: did not show anticonvulsant activity

## CNCCC(Oc1ccc(C(F)(F)F)cc1)c1ccccc1 (stereo not shown) [fluoxetine, N-methyl-3-[(4-trifluoromethyl)phenoxy]-3-phenylpropylamine hydrochloride]
Brain serotonin
  brain serotonin levels: can increase brain serotonin levels significantly
Brain dopamine
  dopamine concentration in the brain: can increase dopamine concentration in the brain

## CC1=C(C=O)C(C)(C)CC=C1 [Safranal, safranal]
PTZ-induced convulsions
  anticonvulsant activity: reduced the seizure duration, delayed the onset of tonic convulsions, and protected mice from death
[1]
  acquisition and expression of morphine CPP: The same results were obtained
